The NIST ThermoML archive (doi:10.1021/acs.jced.8b00589)
± gives the expanded uncertainty stated by the source.

Key:
[1] = for surface tension liquid-gas: Ring tensiometer; for viscosity / speed of sound / mass density: 100 kPa, Liquid; for viscosity: Capillary tube (Ostwald / Ubbelohde) method; for speed of sound: Frequency=2 MHz, Linear variable-path acoustic interferometer; for mass density: Vibrating tube method
[2] = xn = mol fraction of the nth substance listed; details: x2 = 0; for surface tension liquid-gas: Ring tensiometer; for viscosity / speed of sound / mass density: 100 kPa, Liquid; for viscosity: Capillary tube (Ostwald / Ubbelohde) method; for speed of sound: Frequency=2 MHz, Linear variable-path acoustic interferometer; for mass density: Vibrating tube method

Cc1cccc(C)c1 [1,3-dimethylbenzene]
surface tension liquid-gas ([1]; 298.15 K): 28.19 ± 0.89 mN/m
viscosity ([1]; 298.15 K): 0.59 ± 0.03 mPa·s
speed of sound ([1]; 298.15 K): 1320.9 ± 10 m/s
mass density ([1]; 298.15 K): 859.1 ± 1 kg/m3
surface tension liquid-gas ([1]; 308.15 K): 26.95 ± 0.89 mN/m
viscosity ([1]; 308.15 K): 0.525 ± 0.03 mPa·s
speed of sound ([1]; 308.15 K): 1280 ± 10 m/s
mass density ([1]; 308.15 K): 849.2 ± 1 kg/m3
surface tension liquid-gas ([1]; 318.15 K): 25.64 ± 0.88 mN/m
viscosity ([1]; 318.15 K): 0.482 ± 0.03 mPa·s
speed of sound ([1]; 318.15 K): 1238.2 ± 10 m/s
mass density ([1]; 318.15 K): 840.4 ± 1 kg/m3
surface tension liquid-gas ([1]; 323.15 K): 25 ± 0.88 mN/m
viscosity ([1]; 323.15 K): 0.443 ± 0.03 mPa·s
speed of sound ([1]; 323.15 K): 1218.4 ± 10 m/s
mass density ([1]; 323.15 K): 835.8 ± 1 kg/m3
surface tension liquid-gas ([1]; 328.15 K): 24.37 ± 0.87 mN/m
viscosity ([1]; 328.15 K): 0.433 ± 0.03 mPa·s
speed of sound ([1]; 328.15 K): 1195.2 ± 10 m/s
mass density ([1]; 328.15 K): 831.6 ± 1 kg/m3

Cc1cccc(C)c1 [1,3-dimethylbenzene] + CCC(C)(C)OC
surface tension liquid-gas ([2]; 298.15 K): 28.19 ± 0.89 mN/m
viscosity ([2]; 298.15 K): 0.59 ± 0.03 mPa·s
speed of sound ([2]; 298.15 K): 1320.9 ± 10 m/s
mass density ([2]; 298.15 K): 859.1 ± 1 kg/m3
surface tension liquid-gas ([2]; 308.15 K): 26.95 ± 0.89 mN/m
viscosity ([2]; 308.15 K): 0.525 ± 0.03 mPa·s
speed of sound ([2]; 308.15 K): 1280 ± 10 m/s
mass density ([2]; 308.15 K): 849.2 ± 1 kg/m3
surface tension liquid-gas ([2]; 318.15 K): 25.64 ± 0.88 mN/m
viscosity ([2]; 318.15 K): 0.482 ± 0.03 mPa·s
speed of sound ([2]; 318.15 K): 1238.2 ± 10 m/s
mass density ([2]; 318.15 K): 840.4 ± 1 kg/m3
surface tension liquid-gas ([2]; 323.15 K): 25 ± 0.88 mN/m
viscosity ([2]; 323.15 K): 0.443 ± 0.03 mPa·s
speed of sound ([2]; 323.15 K): 1218.4 ± 10 m/s
mass density ([2]; 323.15 K): 835.8 ± 1 kg/m3
surface tension liquid-gas ([2]; 328.15 K): 24.37 ± 0.87 mN/m
viscosity ([2]; 328.15 K): 0.433 ± 0.03 mPa·s
speed of sound ([2]; 328.15 K): 1195.2 ± 10 m/s
mass density ([2]; 328.15 K): 831.6 ± 1 kg/m3

CCC(C)(C)OC [2-methoxy-2-methylbutane]
surface tension liquid-gas ([1]; 298.15 K): 19.72 ± 0.85 mN/m
viscosity ([1]; 298.15 K): 0.424 ± 0.03 mPa·s
speed of sound ([1]; 298.15 K): 1118 ± 10 m/s
mass density ([1]; 298.15 K): 765.6 ± 1 kg/m3
surface tension liquid-gas ([1]; 308.15 K): 18.66 ± 0.85 mN/m
viscosity ([1]; 308.15 K): 0.39 ± 0.03 mPa·s
speed of sound ([1]; 308.15 K): 1075.6 ± 10 m/s
mass density ([1]; 308.15 K): 756.3 ± 1 kg/m3
surface tension liquid-gas ([1]; 318.15 K): 17.65 ± 0.85 mN/m
viscosity ([1]; 318.15 K): 0.357 ± 0.03 mPa·s
speed of sound ([1]; 318.15 K): 1031.1 ± 10 m/s
mass density ([1]; 318.15 K): 746.3 ± 1 kg/m3
surface tension liquid-gas ([1]; 323.15 K): 17.13 ± 0.84 mN/m
viscosity ([1]; 323.15 K): 0.34 ± 0.03 mPa·s
speed of sound ([1]; 323.15 K): 1003 ± 10 m/s
mass density ([1]; 323.15 K): 741.4 ± 1 kg/m3
surface tension liquid-gas ([1]; 328.15 K): 16.62 ± 0.84 mN/m
viscosity ([1]; 328.15 K): 0.328 ± 0.03 mPa·s
speed of sound ([1]; 328.15 K): 985.24 ± 10 m/s
mass density ([1]; 328.15 K): 736.5 ± 1 kg/m3

CCCCCC [hexane]
surface tension liquid-gas ([1]; 298.15 K): 17.75 ± 0.85 mN/m
viscosity ([1]; 298.15 K): 0.295 ± 0.03 mPa·s
speed of sound ([1]; 298.15 K): 1073.2 ± 10 m/s
mass density ([1]; 298.15 K): 654.7 ± 1 kg/m3
surface tension liquid-gas ([1]; 308.15 K): 16.63 ± 0.84 mN/m
viscosity ([1]; 308.15 K): 0.263 ± 0.03 mPa·s
speed of sound ([1]; 308.15 K): 1031.2 ± 10 m/s
mass density ([1]; 308.15 K): 645.4 ± 1 kg/m3
surface tension liquid-gas ([1]; 318.15 K): 15.52 ± 0.84 mN/m
viscosity ([1]; 318.15 K): 0.24 ± 0.03 mPa·s
speed of sound ([1]; 318.15 K): 981.26 ± 10 m/s
mass density ([1]; 318.15 K): 636.2 ± 1 kg/m3
surface tension liquid-gas ([1]; 323.15 K): 14.96 ± 0.84 mN/m
viscosity ([1]; 323.15 K): 0.232 ± 0.03 mPa·s
speed of sound ([1]; 323.15 K): 960.75 ± 10 m/s
mass density ([1]; 323.15 K): 631.2 ± 1 kg/m3
surface tension liquid-gas ([1]; 328.15 K): 14.41 ± 0.83 mN/m
viscosity ([1]; 328.15 K): 0.223 ± 0.03 mPa·s
speed of sound ([1]; 328.15 K): 940.39 ± 10 m/s
mass density ([1]; 328.15 K): 626.4 ± 1 kg/m3

CCCCCC [hexane] + CCC(C)(C)OC
surface tension liquid-gas ([2]; 298.15 K): 17.75 ± 0.85 mN/m
viscosity ([2]; 298.15 K): 0.295 ± 0.03 mPa·s
speed of sound ([2]; 298.15 K): 1073.2 ± 10 m/s
mass density ([2]; 298.15 K): 654.7 ± 1 kg/m3
surface tension liquid-gas ([2]; 308.15 K): 16.63 ± 0.84 mN/m
viscosity ([2]; 308.15 K): 0.263 ± 0.03 mPa·s
speed of sound ([2]; 308.15 K): 1031.2 ± 10 m/s
mass density ([2]; 308.15 K): 645.4 ± 1 kg/m3
surface tension liquid-gas ([2]; 318.15 K): 15.52 ± 0.84 mN/m
viscosity ([2]; 318.15 K): 0.24 ± 0.03 mPa·s
speed of sound ([2]; 318.15 K): 981.23 ± 10 m/s
mass density ([2]; 318.15 K): 636.2 ± 1 kg/m3
surface tension liquid-gas ([2]; 323.15 K): 14.96 ± 0.84 mN/m
viscosity ([2]; 323.15 K): 0.232 ± 0.03 mPa·s
speed of sound ([2]; 323.15 K): 960.75 ± 10 m/s
mass density ([2]; 323.15 K): 631.2 ± 1 kg/m3
surface tension liquid-gas ([2]; 328.15 K): 14.41 ± 0.83 mN/m
viscosity ([2]; 328.15 K): 0.223 ± 0.03 mPa·s
speed of sound ([2]; 328.15 K): 940.35 ± 10 m/s
mass density ([2]; 328.15 K): 626.4 ± 1 kg/m3
